Measurements as given in ChEMBL document CHEMBL1201862, “PubChem BioAssay data set” (2004).
The source made the active and inactive calls.

Tests used:
[1] = biological target: T1, Corticotropin-releasing factor receptor 2/Corticotropin-releasing factor-binding protein (Homo sapiens, UniProt P24387+Q13324); assay: activators of CRF receptor 2 with binding protein – uHTS hits, confirmation (AID 602473); type: functional; conditions: read-out: EC50_Mean
T1 sequence (Q13324 whole entry): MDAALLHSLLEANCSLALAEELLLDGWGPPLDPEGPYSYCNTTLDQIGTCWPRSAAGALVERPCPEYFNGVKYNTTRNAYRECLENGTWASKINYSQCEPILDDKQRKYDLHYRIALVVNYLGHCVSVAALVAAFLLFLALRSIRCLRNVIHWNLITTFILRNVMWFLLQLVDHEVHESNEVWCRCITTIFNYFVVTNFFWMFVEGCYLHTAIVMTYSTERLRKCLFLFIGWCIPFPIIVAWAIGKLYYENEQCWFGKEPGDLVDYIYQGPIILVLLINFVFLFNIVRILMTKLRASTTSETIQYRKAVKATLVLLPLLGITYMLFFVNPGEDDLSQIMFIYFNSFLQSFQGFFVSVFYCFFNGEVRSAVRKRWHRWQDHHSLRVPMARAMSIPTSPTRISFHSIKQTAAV
T1 sequence (P24387 whole entry): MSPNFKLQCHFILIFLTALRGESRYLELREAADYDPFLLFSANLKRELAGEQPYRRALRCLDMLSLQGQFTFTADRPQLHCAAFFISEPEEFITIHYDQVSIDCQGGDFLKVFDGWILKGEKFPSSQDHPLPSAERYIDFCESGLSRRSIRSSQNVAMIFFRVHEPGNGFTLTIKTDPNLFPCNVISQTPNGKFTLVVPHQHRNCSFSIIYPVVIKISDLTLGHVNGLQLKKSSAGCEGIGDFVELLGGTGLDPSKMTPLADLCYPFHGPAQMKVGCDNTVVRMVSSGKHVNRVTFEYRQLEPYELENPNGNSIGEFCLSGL

[2] = biological target: T2, Carboxy-terminal domain RNA polymerase II polypeptide A small phosphatase 1 (Homo sapiens, UniProt Q9GZU7); assay: inhibitors of CTDSP1, concentration-response testing, biochemical assay, absorbance-based, actives from ultra-high-throughput screening (AID 540297); type: functional
T2 sequence (Q9GZU7 whole entry): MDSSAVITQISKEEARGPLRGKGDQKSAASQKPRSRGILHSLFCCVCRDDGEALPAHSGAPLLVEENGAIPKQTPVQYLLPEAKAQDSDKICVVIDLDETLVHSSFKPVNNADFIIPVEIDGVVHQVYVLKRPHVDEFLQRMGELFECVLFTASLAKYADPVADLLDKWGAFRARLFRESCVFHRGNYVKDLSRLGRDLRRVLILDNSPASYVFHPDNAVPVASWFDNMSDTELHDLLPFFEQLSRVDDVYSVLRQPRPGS

Paired box protein Pax-8 = Paired box protein Pax-8 (Homo sapiens, UniProt Q06710); assay: inhibitors of PAX8-driven TPO luciferase reporter, dose response, RMG-I cells, cherry-pick (AID 687027); type: functional, cell-based;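 further: luciferase reporter driven by Pax8 target thyroperoxidase promoter measured by SteadyGlo luminescence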
Chain of Paired box protein Pax-8 (Q06710 whole entry): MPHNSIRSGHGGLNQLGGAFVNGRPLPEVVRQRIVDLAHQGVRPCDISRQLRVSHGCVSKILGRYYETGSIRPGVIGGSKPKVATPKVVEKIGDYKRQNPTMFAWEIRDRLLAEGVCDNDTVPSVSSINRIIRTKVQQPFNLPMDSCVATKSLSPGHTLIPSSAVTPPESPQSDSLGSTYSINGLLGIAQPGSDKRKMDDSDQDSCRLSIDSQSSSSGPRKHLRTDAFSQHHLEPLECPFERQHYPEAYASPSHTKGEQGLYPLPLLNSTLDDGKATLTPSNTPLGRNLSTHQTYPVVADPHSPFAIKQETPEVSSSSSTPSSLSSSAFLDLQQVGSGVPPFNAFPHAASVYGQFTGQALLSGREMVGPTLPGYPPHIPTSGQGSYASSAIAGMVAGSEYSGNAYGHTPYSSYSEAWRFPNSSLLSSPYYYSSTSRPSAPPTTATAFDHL

Vero = assay: cells; type: functional; conditions: Chlorocebus sabaeus
[3] = biological target: T3, Zinc finger protein mex-5 (Caenorhabditis elegans, UniProt Q9XUB2); assay: MEX-5/TCR-2 RNA interaction inhibitors, dose response, biochemical, C. elegans, fluorescence polarization (AID 1960)
T3 sequence (Q9XUB2 whole entry): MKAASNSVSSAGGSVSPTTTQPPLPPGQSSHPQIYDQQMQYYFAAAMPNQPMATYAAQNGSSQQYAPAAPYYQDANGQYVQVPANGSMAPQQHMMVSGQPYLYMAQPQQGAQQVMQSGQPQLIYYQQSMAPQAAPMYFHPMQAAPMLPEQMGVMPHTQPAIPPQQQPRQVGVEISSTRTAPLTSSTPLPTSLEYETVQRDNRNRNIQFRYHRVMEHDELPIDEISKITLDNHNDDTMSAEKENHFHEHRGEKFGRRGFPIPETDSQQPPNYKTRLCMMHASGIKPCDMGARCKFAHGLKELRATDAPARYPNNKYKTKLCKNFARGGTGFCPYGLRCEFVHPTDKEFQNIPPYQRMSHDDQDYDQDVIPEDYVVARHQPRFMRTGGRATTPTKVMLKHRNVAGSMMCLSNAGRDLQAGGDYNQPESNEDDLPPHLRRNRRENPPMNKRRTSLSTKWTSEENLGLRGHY

[4] = biological target: T4, RNA-binding protein pos-1 (Caenorhabditis elegans, UniProt G5EF15); assay: inhibitors of POS-1/mex-3 RNA binding, dose response, biochemical, fluorescence polarization (AID 1964);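 further: purified POS-1 fused to maltose binding protein made in E. coli; potency of compounds blocking POS-1 binding to fluorescent RNA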
T4 sequence (G5EF15 whole entry): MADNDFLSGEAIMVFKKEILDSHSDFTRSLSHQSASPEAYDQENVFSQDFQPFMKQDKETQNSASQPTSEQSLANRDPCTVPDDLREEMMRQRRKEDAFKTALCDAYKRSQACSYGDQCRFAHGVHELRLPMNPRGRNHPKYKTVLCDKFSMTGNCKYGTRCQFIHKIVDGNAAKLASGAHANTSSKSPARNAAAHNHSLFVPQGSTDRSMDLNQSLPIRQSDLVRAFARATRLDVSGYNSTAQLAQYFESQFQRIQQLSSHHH

Large T antigen = Large T antigen (Simian virus 40, UniProt P03070); type: functional, Betapolyomavirus macacae;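 further: Confirmatory-stage PubChem screen for compounds that inhibit SV40 T antigen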
Chain of Large T antigen (P03070 whole entry): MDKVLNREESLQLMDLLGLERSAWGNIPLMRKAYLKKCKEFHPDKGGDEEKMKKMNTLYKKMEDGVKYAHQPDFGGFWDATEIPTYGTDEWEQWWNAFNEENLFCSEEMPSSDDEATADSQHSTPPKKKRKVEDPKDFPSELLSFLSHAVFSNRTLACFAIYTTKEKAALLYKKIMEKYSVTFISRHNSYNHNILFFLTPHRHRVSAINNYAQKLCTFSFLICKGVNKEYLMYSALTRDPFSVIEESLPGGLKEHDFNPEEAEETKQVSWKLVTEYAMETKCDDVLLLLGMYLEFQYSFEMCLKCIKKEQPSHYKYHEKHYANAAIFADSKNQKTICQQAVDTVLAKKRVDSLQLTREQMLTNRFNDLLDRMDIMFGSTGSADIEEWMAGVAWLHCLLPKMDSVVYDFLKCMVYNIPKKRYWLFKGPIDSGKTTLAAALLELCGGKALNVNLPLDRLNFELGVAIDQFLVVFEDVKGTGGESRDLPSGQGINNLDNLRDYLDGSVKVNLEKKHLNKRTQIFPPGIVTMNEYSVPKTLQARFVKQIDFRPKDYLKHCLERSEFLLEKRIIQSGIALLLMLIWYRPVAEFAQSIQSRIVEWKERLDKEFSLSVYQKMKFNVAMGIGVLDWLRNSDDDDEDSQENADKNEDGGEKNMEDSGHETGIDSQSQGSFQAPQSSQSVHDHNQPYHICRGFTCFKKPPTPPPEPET

[5] = inhibitors of intracellular T. cruzi replication, confirmation, NIH3T3 host cells, beta-gal luminescence (AID 2044); type: functional, cell-based;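 further: intracellular parasites grown in NIH/3T3 mouse fibroblasts as host cells; luminescent beta-galactosidase reporter signal from transgenic T. cruzi replicating inside host cells; inhibitors lower the luminescence signal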
[6] = Luminescence Cell-Based Dose Confirmation HTS to Identify Inhibitors of Platelet Dense Granule Release. [Related pubchem assays: 1663 (Primary HTS), 1678 (Summary of Project)]; type: functional
[7] = cytotoxicity toward NIH3T3 fibroblasts, dose response, counter-screen, cell-based, ATP luminescence, mouse fibroblasts (AID 2010); type: functional;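 further: cells exposed to compound for about 90 hours before reading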
[8] = biological target: Luciferin 4-monooxygenase (Photinus pyralis, UniProt P08659); assay: firefly luciferase enzyme inhibitors, dose response, biochemical, luminescence (AID 1891)
Chain of Luciferin 4-monooxygenase (P08659 whole entry): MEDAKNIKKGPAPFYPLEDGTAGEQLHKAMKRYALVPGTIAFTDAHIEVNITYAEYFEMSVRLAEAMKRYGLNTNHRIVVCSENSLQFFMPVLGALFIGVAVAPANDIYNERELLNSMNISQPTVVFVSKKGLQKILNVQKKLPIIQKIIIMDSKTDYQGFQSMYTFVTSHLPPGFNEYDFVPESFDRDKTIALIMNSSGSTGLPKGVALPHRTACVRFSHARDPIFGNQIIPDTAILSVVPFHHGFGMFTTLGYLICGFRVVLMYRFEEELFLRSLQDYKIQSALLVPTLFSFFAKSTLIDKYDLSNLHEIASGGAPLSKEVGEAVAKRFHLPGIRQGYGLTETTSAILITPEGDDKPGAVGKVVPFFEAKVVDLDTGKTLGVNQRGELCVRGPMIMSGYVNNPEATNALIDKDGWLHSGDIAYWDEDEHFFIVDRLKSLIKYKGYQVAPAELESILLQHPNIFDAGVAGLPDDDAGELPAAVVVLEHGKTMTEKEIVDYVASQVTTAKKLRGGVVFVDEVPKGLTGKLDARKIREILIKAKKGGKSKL

[9] = biological target: Heat shock protein HSP 90-alpha (Homo sapiens, UniProt P07900); type: functional, organism-based
[10] = biological target: FAD-linked sulfhydryl oxidase ALR (Homo sapiens, UniProt P55789); assay: inhibitors of human ALR sulfhydryl oxidase, dose response, biochemical, H2O2 detection, luminescence, cherry-pick (AID 493248)
Chain of FAD-linked sulfhydryl oxidase ALR (P55789 whole entry): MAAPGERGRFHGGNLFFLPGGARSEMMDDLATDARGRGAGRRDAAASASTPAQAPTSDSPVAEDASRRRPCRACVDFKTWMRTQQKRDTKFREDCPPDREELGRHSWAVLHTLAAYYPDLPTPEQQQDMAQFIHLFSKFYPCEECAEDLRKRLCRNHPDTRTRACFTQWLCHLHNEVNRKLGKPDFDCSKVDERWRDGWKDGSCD

## O=C(NCCOC(=O)C1COc2ccccc2O1)c1cccnc1 (stereo not drawn)
[1]
  EC50: > 53 µM (inactive)

## CCCc1ccc(C(=O)NNC(=O)c2ccc(Cl)cc2)cc1
[2]
  IC50: 9.67 µM (active)

## C[C@H]1CCCCO[C@@H](CN(C)C)[C@@H](C)CN([C@@H](C)CO)C(=O)c2cc(NC(=O)Nc3ccc(C(F)(F)F)cc3)ccc2O1
Paired box protein Pax-8
  AC50: 22.1 µM (active)

## CCn1c(=O)c(NC(=O)c2ccccc2)c2n(c1=S)CCCCC2
[2]
  IC50: 8.47 µM (active)

## Cc1ccc(-c2cc3nc(-c4ccccc4)cc(NCCCO)n3n2)cc1
Vero
  CC50: > 25 µM (active)

## C[N+]1(C2CCC3CCCC2C3O)CCCC1 (stereo not drawn)
[2]
  IC50: 6.98 µM (active)

## CC(=O)c1c(C(C)=O)c(C)n(-c2ccc(C(=O)O)cc2)c1C
[3]
  EC50: > 300 µM (not active)
[4]
  EC50: > 300 µM (not active)

## CC(=O)Nc1ccc(S(=O)(=O)N(C)CC(=O)OCC(=O)N2CCN(C(=O)c3ccco3)CC2)cc1
[2]
  IC50: 9.38 µM (active)

## CN(C)c1ccc(NS(=O)(=O)c2cc3c4c(c2)CC(=O)N4CCC3)cc1
Large T antigen
  IC50: 69.8 µM (active)

## O=C(COc1ccc2oc(-c3ccccc3)cc(=O)c2c1)NCc1ccco1
[2]
  IC50: 9.63 µM (active)

## CN(C)c1ccc(N/C=C/C(=O)c2ccc(F)cc2)cc1
[5]
  EC50: 2.32 µM (active)
[6]
  EC50: 1.5 µM (active)
[7]
  EC50: > 30 µM (not active)
[8]
  EC50: 0.816 µM (active)

## COc1ccc(C2CC(=O)C(/C=N/CCCO)=C(O)C2)cc1 (stereo not drawn)
[3]
  EC50: 37.9 µM (active)
[4]
  EC50: 34.8 µM (active)

## Cc1c(N/C=C2\C(=O)NC(=O)N(Cc3ccccc3)C2=O)c(=O)n(-c2ccccc2)n1C
[3]
  EC50: > 300 µM (not active)
[4]
  EC50: > 300 µM (not active)

## CN(C)c1ccc(N/C=C/C(=O)c2ccccc2)cc1
[6]
  EC50: 0.93 µM (active)
Large T antigen
  IC50: 5.19 µM (active)
[8]
  EC50: 0.654 µM (active)

## C[C@@H]1CCCCO[C@H](CN(C)Cc2ccc(C(F)(F)F)cc2)[C@H](C)CN([C@H](C)CO)C(=O)c2cc(NS(=O)(=O)c3ccc(F)cc3)ccc2O1
Paired box protein Pax-8
  AC50: 6.71 µM (active)

## COc1ccc(NCC(O)Cn2cnc3c2c(=O)n(C)c(=O)n3C)cc1 (stereo not drawn)
Large T antigen
  IC50: 17.7 µM (active)

## COc1cc(/C=C2\SC(NS(=O)(=O)c3ccc(C)cc3)=NC2=O)c([N+](=O)[O-])cc1OC
Large T antigen
  IC50: 41.3 µM (active)

## NC(=O)c1c(NC(=O)c2c(F)cccc2F)sc2c1CCN(Cc1ccccc1)C2
[3]
  EC50: > 300 µM (not active)
[4]
  EC50: 57.1 µM (active)

## C#CCN(C[C@H]1[C@H](OC(=O)Nc2c(C)noc2C)[C@H](OC(=O)Nc2c(C)noc2C)C[C@@H](C(=O)OC)[C@H]1C(=O)OC)S(=O)(=O)c1ccc(C)cc1
Paired box protein Pax-8
  AC50: 31.9 µM (active)

## CN(O)C(=S)c1ccccc1
[9]
  AC50: 0.521 µM (active)

## CCN(C(=O)CN1C(=O)COc2ccc(S(=O)(=O)N3CCCCCC3)cc21)c1cccc(C)c1
[1]
  EC50: 6.41 µM (active)

## CC1CCN(C2CC(=O)N(c3ccc(Br)cc3Br)C2=O)CC1 (stereo not drawn)
[9]
  AC50: < 0.195 µM (active)

## COc1ccc(OC)c(/N=C/c2c(O)oc3ccccc3c2=O)c1
[3]
  EC50: > 300 µM (inconclusive)
[4]
  EC50: > 300 µM (inconclusive)

## CC(=O)Oc1cc(O)c2c(=O)c(OC(C)=O)c(-c3ccc(OC(C)=O)c(OC(C)=O)c3)oc2c1
Large T antigen
  IC50: 14.4 µM (active)

## COc1cc(-c2csc(C)n2)ccc1O
[10]
  AC50: 13.9 µM (active)
Large T antigen
  IC50: 4.9 µM (active)

## CC(C)(O)CCCC(C)(O)c1ccc(C(=O)O)cc1O (stereo not drawn)
[2]
  IC50: 9.75 µM (active)

## Oc1ccccc1-c1nc(NC2CCCC2)c2ccccc2n1
[9]
  AC50: 4.23 µM (active)

## Cc1cc(C(F)(F)F)c2c(N)c(C(=O)Nc3cc(C)on3)sc2n1
[3]
  EC50: 39.2 µM (active)
[4]
  EC50: > 300 µM (inconclusive)

## COc1ccccc1NC(=O)c1nn(-c2ccc(Cl)cc2)ccc1=O
[2]
  IC50: 9.88 µM (active)

## C[C@@H]1CCCCO[C@H](CN(C)C(=O)Nc2ccc(F)cc2)[C@@H](C)CN([C@@H](C)CO)C(=O)c2cc(NC(=O)Nc3ccc(C(F)(F)F)cc3)ccc2O1
Paired box protein Pax-8
  AC50: 2.58 µM (active)

## O=C(CCN1C(=O)/C(=C/c2cccs2)SC1=S)NC1=NCCS1
[9]
  AC50: 5.03 µM (active)
